Experimental data from PMC11156913, “New sulfonamide-based glycosides incorporated 1,2,3-triazole as cytotoxic agents through VEGFR-2 and carbonic anhydrase inhibitory activity” (Scientific Reports, 2024).
“And” between values parts separate entries of the source, which are not always exact repeats. Equal entries are not always repeated.

Columns and labels:
[1] = test system: liver HepG-2 cancer cell line; test: In vitro cytotoxic activity (MTT assay), HepG-2
Source text: (§1) The supplemental file contained extra details.

[2] = test system: breast MCF-7 cancer cell line; test: In vitro cytotoxic activity (MTT assay), MCF-7; format: cell-based, human
Source text: as §1

[3] = test system: colorectal HCT-116 cancer cell line; test: In vitro cytotoxic activity (MTT assay), HCT-116; format: cell-based, human
Source text: as §1

[4] = test system: retinal pigment epithelial normal RPE-1 cell line; test: Cytotoxic activity (MTT assay) against normal cell line RPE-1; format: cell-based; conditions: Homo sapiens, normal RPE-1 cells, read-out: IC50 (mean ± SD) RPE-1
Source text: Furthermore, the MTT assay was utilized to estimate the cytotoxic activity of the extremely potent derivatives 4, 7 and 9 against the normal cell line RPE-1, with the aim of examining their safety profiles (Table 1). […] They could therefore be thought of as safe cytotoxic agents.
as §1

VEGFR-2 = VEGFR-2 (Homo sapiens, UniProt P35968); test: In vitro inhibitory assessment against VEGFR-2 (ELISA, MCF-7 cell homogenates); format: cell-based; conditions: read-out: IC50 (mean ± SD) VEGFR-2
VEGFR-2, sequence (P35968 20-1356): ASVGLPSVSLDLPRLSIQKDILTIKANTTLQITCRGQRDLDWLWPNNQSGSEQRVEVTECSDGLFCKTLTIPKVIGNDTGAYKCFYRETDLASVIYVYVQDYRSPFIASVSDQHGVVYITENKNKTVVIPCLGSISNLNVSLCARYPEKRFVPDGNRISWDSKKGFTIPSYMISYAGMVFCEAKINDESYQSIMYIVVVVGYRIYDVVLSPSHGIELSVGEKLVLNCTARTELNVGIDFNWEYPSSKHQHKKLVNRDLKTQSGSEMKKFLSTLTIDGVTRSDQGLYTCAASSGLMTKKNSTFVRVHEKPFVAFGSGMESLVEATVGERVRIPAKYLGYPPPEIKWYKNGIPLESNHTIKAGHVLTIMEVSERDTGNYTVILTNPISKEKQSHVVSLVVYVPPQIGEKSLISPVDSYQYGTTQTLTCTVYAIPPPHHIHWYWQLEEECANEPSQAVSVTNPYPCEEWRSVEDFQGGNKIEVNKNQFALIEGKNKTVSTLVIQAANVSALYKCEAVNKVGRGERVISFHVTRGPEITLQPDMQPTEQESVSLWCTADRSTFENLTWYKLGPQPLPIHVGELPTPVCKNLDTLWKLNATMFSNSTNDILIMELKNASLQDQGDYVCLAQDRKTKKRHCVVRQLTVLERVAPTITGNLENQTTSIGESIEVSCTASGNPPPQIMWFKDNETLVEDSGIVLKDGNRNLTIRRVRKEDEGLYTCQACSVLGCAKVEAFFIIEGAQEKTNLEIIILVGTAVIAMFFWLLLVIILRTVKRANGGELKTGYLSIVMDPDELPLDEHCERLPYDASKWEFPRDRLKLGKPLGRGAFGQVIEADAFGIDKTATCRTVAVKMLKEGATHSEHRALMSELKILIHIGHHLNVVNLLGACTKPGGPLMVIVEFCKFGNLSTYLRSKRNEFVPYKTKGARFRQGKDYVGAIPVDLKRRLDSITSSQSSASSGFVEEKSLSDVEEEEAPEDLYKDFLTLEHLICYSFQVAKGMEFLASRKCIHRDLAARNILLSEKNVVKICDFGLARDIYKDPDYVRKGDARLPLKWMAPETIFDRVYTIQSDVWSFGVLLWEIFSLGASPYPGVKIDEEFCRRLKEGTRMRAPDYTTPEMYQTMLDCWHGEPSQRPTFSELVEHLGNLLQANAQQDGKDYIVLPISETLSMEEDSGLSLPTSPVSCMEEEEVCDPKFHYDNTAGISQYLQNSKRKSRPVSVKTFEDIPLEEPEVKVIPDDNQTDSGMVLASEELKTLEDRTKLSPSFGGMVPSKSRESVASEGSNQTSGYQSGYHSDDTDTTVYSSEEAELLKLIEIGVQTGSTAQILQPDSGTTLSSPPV
Protocol: (§2) There was further information in the supplemental file.
The cells were harvested and the homogenates were prepared in saline using a tight pestle homogenizer until complete cell disruption. The kit uses a double-antibody sandwich enzyme-linked immunosorbent assay (ELISA) to determine the level of human VEGFR-2 in samples. A monoclonal antibody for VEGFR-2 was pre-coated onto 96-well plates. The test samples are added to the wells and a biotinylated detection polyclonal antibody from goat specific for VEGFR-2 was added subsequently followed by washing with PBS buffer. Avidin-Biotin-Peroxidase complex was added and the unbound conjugates were washed away with PBS buffer. HRP substrate TMB was used to visualize HRP enzymatic reaction. TMB was catalyzed by HRP to produce a blue color product that changed into yellow after adding acidic stop solution. The density of yellow color is proportional to the human VEGFR-2 amount of the sample captured in the plate. The chroma of color and the concentration of the human VEGFR-2 of the samples were positively correlated and the optical density was determined at 450 nm. The level of human VEGFR-2 in samples was calculated (pg/ml) as duplicate determinations from the standard curve. Percent inhibition was calculated in comparison to control untreated cells.

hCA IX = target: T1, hCA IX (Homo sapiens, UniProt Q16790); test: Carbonic anhydrase inhibition, stopped-flow CO2 hydration, hCA IX; format: biochemical; conditions: read-out: IC50 (mean ± SD) Carbonic anhydrase isoforms hCA IX
T1 construct: made in house
Protocol: as §2
(§3) An applied photophysics stopped-flow instrument was used for assaying the CA-catalyzed CO2 hydration activity. […] The CO2 concentrations ranged from 1.7 to 17 mM for the determination of the kinetic parameters and inhibition constants. For each inhibitor, at least six traces of the initial 5–10% of the reaction were used for determining the initial rate. The uncatalyzed rates were determined in the same manner and subtracted from the total observed rates. Stock solutions of inhibitor (0.1 mM) were prepared in distilled-deionized water, and dilutions up to 0.01 nM were done thereafter with distilled-deionized water. Inhibitor and enzyme solutions were preincubated together for 15 min at room temperature before assay in order to allow for the formation of the E-I complex. The inhibition constants were obtained by nonlinear least-squares methods using PRISM 3, and the Cheng –Prusoff equation, and represent the mean from at least three different determinations. All CA isoforms were recombinant ones obtained in-house.

hCA XII = target: T2, hCA XII (Homo sapiens, UniProt O43570); test: Carbonic anhydrase inhibition, stopped-flow CO2 hydration, hCA XII; format: biochemical; conditions: read-out: IC50 (mean ± SD) Carbonic anhydrase isoforms hCA XII
T2 construct: made in house
T2 sequence (O43570 25-354): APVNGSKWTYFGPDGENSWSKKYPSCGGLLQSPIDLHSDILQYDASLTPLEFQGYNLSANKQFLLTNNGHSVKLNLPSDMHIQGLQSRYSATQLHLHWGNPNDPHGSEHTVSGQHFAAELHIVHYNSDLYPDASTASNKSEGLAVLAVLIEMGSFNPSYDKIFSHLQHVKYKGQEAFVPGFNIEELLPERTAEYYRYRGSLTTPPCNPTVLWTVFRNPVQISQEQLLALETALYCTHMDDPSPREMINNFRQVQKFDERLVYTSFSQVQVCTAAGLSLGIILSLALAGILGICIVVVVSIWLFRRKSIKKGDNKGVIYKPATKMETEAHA
Protocol: as §2, §3

MCF-7 cells [5] = test: Cell cycle analysis by flow cytometry (PI); format: cell-based, human; conditions: 21.15 μM, 24 h, 48 h (Table S6 title)
Protocol: (§4) The cells were further examined through flow cytometry with annexin-V staining (Figs. 5–7).
(§5) The examination of cell cycle analysis and apoptosis was explained[66] with the use of flow cytometry. Benzenesulfonamide-1,2,3-triazole-glycosides 9 was applied to MCF-7 cells for a duration of 24 h, and the cells were then incubated at 37 °C. Further details were included in the supplemental file.
(§6) Cell cycle analysis and apoptosis study were carried out using flow cytometry. MCF-7 cells were seeded at 8×10^4 and incubated at 37°C in 5% CO2 overnight. After treatment with the tested compound 10 for 24 h, cell pellets were collected and centrifuged (300 g, 5 min). For cell cycle analysis cell pellets were fixed with 70% ethanol on ice for 15 min and collected again. The pellets were incubated with propidium iodide (PI) staining solution at room temperature for 1 h and analyzed by a Gallios flow cytometer (Beckman Coulter, Brea, CA, USA). Apoptosis detection was carried out by FITC AnnexinV/PI commercial kit (Becton Dickenson, Franklin Lakes, NJ, USA) following the manufacturer protocol. The samples were analyzed by fluorescence-activated cell sorting (FACS) with a Gallios flow cytometer (Beckman Coulter, Brea, CA, USA) within 1 h after staining. Data were analyzed using Kaluza v 1.2 (Beckman Coulter).

MCF-7 cells [6] = test: Apoptosis detection, Annexin V-FITC/PI flow cytometry; format: cell-based, human; conditions: 21.15 μM, 24 h
Protocol: as §4, §5, §6

Bax = Bax level in MCF-7 cells; format: cell-based, human; conditions: 24 h, 21.15 μM
Source text: (§7) Additionally, compound 9 boosted the p53 protein level by 7.4 times in MCF-7 treated cells compared to 125.40 Pg/mL in control cells (Table 3).
(§8) Bax, Bcl-2 and p53 levels in MCF-7 cells were clarified utilising the previously reported approach for the promising benzenesulfonamide-1,2,3-triazole-glycosides 9.
(§9) The levels of the apoptotic marker Bax and anti-apoptotic marker Bcl-2 were estimated using BIO RAD iScript TM One-Step RT-PCR kit with SYBR® Green. The procedure of the used kit was done according to the manufacturer’s instructions.

Bcl-2 = Bcl-2 level in MCF-7 cells; format: cell-based, human; conditions: 24 h, 21.15 μM
Source text: as §7, §8, §9

p53 = p53 level in MCF-7 cells (ELISA); format: cell-based, human; conditions: 24 h, 21.15 μM
Protocol: as §7, §8
Human p53 present in MCF-7 cells was determined; using Human p53 ELISA-Kit (CS0070 Sigma) read using spectrophotometer at 450 nm against untreated control cells (negative control) applying the standard protocols of the manufacturers. The samples or standard having human p53 bind to antibodies adsorbed to the microwells. Addition of biotin-conjugated was followed by incubation and addition of dispense of unbound biotin-conjugated streptavidin HRP. Then, the reaction was terminated by adding acid, and the absorbance was measured at 450 nm.

[7] = test system: lung A-549 cancer cell line; test: In vitro cytotoxic activity (MTT assay), A-549
Protocol: Exponentially, cells were placed in 10^4 cells/ well for 24 h, and then add fresh medium which containing different concentration of the tested sample. Serial two-fold dilution of the tested sample were added using a multichannel pipette. […] Rinse the wells using water until no stain. After that, add 30% glacial acetic acid to all wells with shaking plates on Microplate reader (TECAN, Inc.) to measure the absorbance, using a test wavelength of 490 nm. Besides, compare the treated samples with the control cell.

Compound: CC(=O)O[C@@H]1[C@@H](OC(C)=O)[C@H](OCc2cn(-c3ccc(S(=O)(=O)NC4CCCCC4)cc3)nn2)OC[C@H]1OC(C)=O [Compound 9, N-cyclohexyl-4-(4-([2,3,4-tri-O-acetyl-β-D-xylopyranosyl]oxymethyl)-1H-1,2,3-triazol-1-yl)benzenesulfonamide]
- percentage cytotoxicity on HepG-2 ([1]; 12.5 µM): 58.20±1.50%
- percentage cytotoxicity on HepG-2 ([1]; 25 µM): 63.70±2.29%
- percentage cytotoxicity on HepG-2 ([1]; 50 µM): 82.59±0.87%
- percentage cytotoxicity on HepG-2 ([1]; 100 µM): 82.60±1.73%
- IC50 ([1]; Homo sapiens, HepG2, read-out: IC50 (mean ± SD) HepG-2): 8.39 ± 0.2 µM
- percentage cytotoxicity on MCF-7 ([2]; 12.5 µM): 32.60±6.13%
- percentage cytotoxicity on MCF-7 ([2]; 25 µM): 52.27±0.43%
- percentage cytotoxicity on MCF-7 ([2]; 50 µM): 83.30±1.87%
- percentage cytotoxicity on MCF-7 ([2]; 100 µM): 92.73±1.04%
- inhibition at 100 µM ([2]; Homo sapiens, MCF7, 100 µM, 48 h, read-out: % inhibition ± SD MCF-7): 92.7 ± 1.04%
- IC50 ([2]; Homo sapiens, MCF7, MCF-7 cells, MTT, read-out: IC50 (mean ± SD) MCF-7): 21.2 ± 2.45 µM
- percentage cytotoxicity on HCT-116 ([3]; 12.5 µM): 34.51±0.44%
- percentage cytotoxicity on HCT-116 ([3]; 25 µM): 53.50±0.93%
- percentage cytotoxicity on HCT-116 ([3]; 50 µM): 67.00±0.12%
- percentage cytotoxicity on HCT-116 ([3]; 100 µM): 75.70±0.48%
- inhibition at 100 µM ([3]; Homo sapiens, HCT-116, 100 µM, 48 h, read-out: % inhibition ± SD HCT-116): 75.7 ± 0.48%
- IC50 ([3]; Homo sapiens, HCT-116 cells, MTT, read-out: IC50 (mean ± SD) HCT-116): 23.6 ± 0.22 µM
- IC50 [4]: 87.22 ± 0.73 µM
- IC50 (VEGFR-2): 0.38 ± 0.14 µM
- IC50 (hCA IX): 0.04 µM
- IC50 (hCA XII): 0.0032 µM
- %G0-G1 (MCF-7 cells [5]): 52.69%
- %G2/M (MCF-7 cells [5]): 29.98%
- %S (MCF-7 cells [5]): 17.33%
- Apoptosis Early (MCF-7 cells [6]): 15.77%
- Apoptosis Late (MCF-7 cells [6]): 9.75%
- Apoptosis Total (MCF-7 cells [6]): 29.51
- Necrosis (MCF-7 cells [6]): 3.99%
- Bax (Bax): 271.45 pg/mL and 271.45 ± 0.25 pg/mL
- Bax/Bcl-2 (Bax): 83.01
- increase in Bax levels compared to untreated control cells (Bax): 6.2 fold
- Bcl-2 (Bcl-2): 3.27 ng/mL and 3.27 ± 0.18 ng/mL
- Bcl-2 protein downregulated versus control (Bcl-2): 2.6 times
- P53 (p53): 930.69 ± 0.55 pg/mL
- p53 protein level boosted versus control (p53): 7.4 times
- percentage cytotoxicity on A-549 ([7]; 12.5 µM): 43.13±0.73%
- percentage cytotoxicity on A-549 ([7]; 25 µM): 47.60±0.32%
- percentage cytotoxicity on A-549 ([7]; 50 µM): 75.53±1.16%
- percentage cytotoxicity on A-549 ([7]; 100 µM): 90.00±0.95%
- inhibition at 100 µM ([7]; Homo sapiens, A549, 48 h, read-out: % inhibition ± SD A-549): 90 ± 0.95%
- IC50 ([7]; Homo sapiens, A549, read-out: IC50 (mean ± SD) A-549): 19.8 ± 0.65 µM
